Experimental data taken from patent US12662494B2, “Optically active bridged piperidine derivative” (Sumitomo Pharma Co., Ltd., priority 2018, dated 2026).

Columns and labels:
[1] = tested on: MOLM-13 cells; test: Test 2: inhibition of cell proliferation, MOLM-13; assay type: cell-based; details: 7 days, PrestoBlue cell viability
Experimental: (§1) Test 2: Test for Evaluating the Inhibition of Cell Proliferation
(§2) RS4; 11 cells were obtained from American Type Culture Collection (ATCC). The cells were cultured at 37° C. in the presence of 5% CO2 in RPMI 1640 medium containing 10% fetal bovine serum and 1% penicillin/streptomycin. MOLM-13 cells were separately obtained from DSMZ (Deutsche Sammlung von Mikroorganismen und Zellkulturen GmbH). The cells were cultured at 37° C. in the presence of 5% CO2 in RPMI 1640 medium containing […] and 1% penicillin/streptomycin.
(§3) The cells were plated to a 96-well plate in 2000 cells/well, each test compound was added thereto to adjust the final concentration of DMSO to 0.1% of DMSO, and the cells were cultured for 7 days. After the cultivation, the cell viability was calculated with PrestoBlue™ Cell Viability Reagent (Invitrogen, A13261). The IC50 value was calculated from a survival curve, that corresponds to the concentration of the test compound at which the cell proliferation inhibition rate is 50%.

[2] = tested on: RS4; 11 cells; test: Test 2: inhibition of cell proliferation, RS4;11; assay type: cell-based; details: for IC50: RS4;11 cells, 7 days, PrestoBlue cell viability; for cell proliferation inhibition activity, good (in words) / cell proliferation inhibitory activity, potent (in words): summary of Test 2 table, RS4;11 and MOLM-13
Experimental: as §1, §2, §3

[3] = Test 4: pharmacokinetic study, oral, mouse; details: for AUC(0-t): male, NOD.CB17-Prkdcscid/J, plasma, po, 100 mg/kg; for compound-exposure in plasma (in words): summary of Test 4 table, oral 100 mg/kg
Experimental: Test 4: Pharmacokinetic Study
The test compound suspended in 0.5% methylcellulose was orally administered to 7-week-old male NOD. CB17-Prkdcscid/J mouse in a dose of 100 mg/kg. The blood sample was taken from jugular vein without anesthesia over time for 24 hours. The blood sample was centrifuged to obtain plasma. The plasma was pre-treated by methanol extraction method, and then analyzed with an LC-MS/MS to determine the concentration of the test compound. Based on the data from 0 hour after the administration until the time (t) when there was the final detection in the plasma, AUC was calculated by trapezoidal method.

Row | Structure (SMILES) | IC50 ([1]; Homo sapiens, 168 h) [nM] | IC50 ([2]; Homo sapiens, 168 h) [nM] | IC50 [1] [nM] | IC50 [2] [nM] | cell proliferation inhibition activity, good (in words) [2] | cell proliferation inhibitory activity, potent (in words) [2] | AUC(0-t) [3] [ng·h/mL] | compound-exposure in plasma (in words) [3]
1 | C=C1C[C@@H]2CC[C@H]1[C@@H](C(=O)N1CC3(C1)CN(c1c(C(F)(F)F)cnc4sc(CC(F)(F)F)cc14)C3)N2 [Example 17, [(1S,3S,4R)-5-(^2H2)methylidene-2-azabicyclo[2.2.2]octan-3-yl]{6-[2-(2,2,2-trifluoroethyl)-5-(trifluoromethyl)thieno[2,3-b]pyridin-4-yl]-2,6-diazaspiro[3.3]heptan-2-yl}methanone] | – | – | < 30 | < 30 | – | – | – | –
2 | [2H]C([2H])=C1C[C@@H]2CC[C@H]1[C@@H](C(=O)N1CC3(C1)CN(c1c(C(F)(F)F)cnc4sc(CC(F)(F)F)cc14)C3)N2 [Example 17, [(1S,3S,4R)-5-(^2H2)methylidene-2-azabicyclo[2.2.2]octan-3-yl]{6-[2-(2,2,2-trifluoroethyl)-5-(trifluoromethyl)thieno[2,3-b]pyridin-4-yl]-2,6-diazaspiro[3.3]heptan-2-yl}methanone] | – | – | – | – | good cell proliferation inhibition activity | potent cell proliferation inhibitory activity | – | –
3 | C=C1C[C@@H]2CC[C@H]1[C@@H](C(=O)N1CCC3(CC1)CN(c1c(C(F)(F)F)cnc4sc(CC(F)(F)F)cc14)C3)N2 [Example 21, [(1S,3S,4R)-5-(^2H2)methylidene-2-azabicyclo[2.2.2]octan-3-yl]{2-[2-(2,2,2-trifluoroethyl)-5-(trifluoromethyl)thieno[2,3-b]pyridin-4-yl]-2,7-diazaspiro[3.5]nonan-7-yl}methanone] | – | – | < 30 | < 30 | – | – | – | –
4 | C=C1C[C@@H]2CC[C@H]1[C@@H](C(=O)N1CCC3(CC1)CN(c1c(C(F)(F)F)cnc4sc(CC(F)(F)F)cc14)C3)N2 [Example 27, [(1S,3S,4R)-5-Methylidene-2-azabicyclo[2.2.2]octan-3-yl]{2-[2-(2,2,2-trifluoroethyl)-5-(trifluoromethyl)thieno[2,3-b]pyridin-4-yl]-2,7-diazaspiro[3.5]nonan-7-yl}methanone] | 70 | 50 | – | – | good cell proliferation inhibition activity | potent cell proliferation inhibitory activity | 17300 | good compound-exposure in plasma
5 | C=C1C[C@@H]2CC[C@H]1[C@@H](C(=O)N1CCC3(CC1)CN(c1c(C#N)cnc4sc(CC(F)(F)F)cc14)C3)N2 [Example 24, 4-{7-[(1S,3S,4R)-5-(^2H2)methylidene-2-azabicyclo[2.2.2]octane-3-carbonyl]-2,7-diazaspiro[3.5]nonan-2-yl}-2-(2,2,2-trifluoroethyl)thieno[2,3-b]pyridine-5-carbonitrile] | – | – | < 30 | < 30 | – | – | – | –

Second part, led by results:

Row | IC50 ([1]; Homo sapiens, 168 h) [nM] | IC50 ([2]; Homo sapiens, 168 h) [nM] | Structure (SMILES) | IC50 [1] [nM] | IC50 [2] [nM] | cell proliferation inhibition activity, good (in words) [2] | cell proliferation inhibitory activity, potent (in words) [2] | AUC(0-t) [3] [ng·h/mL] | compound-exposure in plasma (in words) [3]
6 | 60 | 70 | C=C1C[C@@H]2CC[C@H]1[C@@H](C(=O)N1CCC3(CC1)CN(c1c(C#N)cnc4sc(CC(F)(F)F)cc14)C3)N2 [Example 28, 4-{7-[(1S,3S,4R)-5-Methylidene-2-azabicyclo[2.2.2]octane-3-carbonyl]-2,7-diazaspiro[3.5]nonan-2-yl}-2-(2,2,2-trifluoroethyl)thieno[2,3-b]pyridine-5-carbonitrile] | – | – | – | – | 11600 | good compound-exposure in plasma
7 | 300 | 300 | C=C1C[C@@H]2C[C@H]1[C@@H](C(=O)N1CCC3(CC1)CN(c1c(C#N)cnc4sc(CC(F)(F)F)cc14)C3)N2 [Example 26, 4-{7-[(1S,3S,4R)-5-methylidene-2-azabicyclo[2.2.1]heptane-3-carbonyl]-2,7-diazaspiro[3.5]nonan-2-yl}-2-(2,2,2-trifluoroethyl)thieno[2,3-b]pyridine-5-carbonitrile] | – | – | – | – | – | –
8 | 30 | < 30 | O=C([C@H]1N[C@H]2CC[C@@H]1C[C@@H]2CC1CC1)N1CCC2(CC1)CN(c1c(C(F)(F)F)cnc3sc(CC(F)(F)F)cc13)C2 [Example 22, [(1S,3S,4R,6S)-6-(cyclopropylmethyl)-2-azabicyclo[2.2.2]octan-3-yl]{2-[2-(2,2,2-trifluoroethyl)-5-(trifluoromethyl)thieno[2,3-b]pyridin-4-yl]-2,7-diazaspiro[3.5]nonan-7-yl}methanone] | – | – | good cell proliferation inhibition activity | potent cell proliferation inhibitory activity | – | –
9 | 110 | 100 | C=C1C[C@@H]2C[C@H]1[C@@H](C(=O)N1CCC3(CC1)CN(c1c(C(F)(F)F)cnc4sc(CC(F)(F)F)cc14)C3)N2 [Example 23, [(1S,3S,4R)-5-methylidene-2-azabicyclo[2.2.1]heptan-3-yl]{2-[2-(2,2,2-trifluoroethyl)-5-(trifluoromethyl)thieno[2,3-b]pyridin-4-yl]-2,7-diazaspiro[3.5]nonan-7-yl}methanone] | – | – | – | – | – | –
10 | 40 | < 30 | N#Cc1cnc2sc(CC(F)(F)F)cc2c1N1CC2(CCN(C(=O)[C@H]3N[C@H]4CC[C@@H]3C[C@@H]4CC3CC3)CC2)C1 [Example 25, 4-{7-[(1S,3S,4R,6S)-6-(cyclopropylmethyl)-2-azabicyclo[2.2.2]octane-3-carbonyl]-2,7-diazaspiro[3.5]nonan-2-yl}-2-(2,2,2-trifluoroethyl)thieno[2,3-b]pyridine-5-carbonitrile] | – | – | good cell proliferation inhibition activity | potent cell proliferation inhibitory activity | – | –
